Source: PMC4423475, “Structure-based discovery of the first non-covalent inhibitors of Leishmania major tryparedoxin peroxidase by high throughput docking” (Scientific Reports, 2015)

How the values were obtained:
[1] = molecular target: T1, horseradish peroxidase (HRP) (Armoracia rusticana, UniProt P00433); assay: HRP inhibition control (compounds tested for their ability to inhibit HRP); assay type: biochemical; conditions: compound at 100 μM; for HRP inhibition: first series (HTD hits)
T1 sequence (P00433 31-353): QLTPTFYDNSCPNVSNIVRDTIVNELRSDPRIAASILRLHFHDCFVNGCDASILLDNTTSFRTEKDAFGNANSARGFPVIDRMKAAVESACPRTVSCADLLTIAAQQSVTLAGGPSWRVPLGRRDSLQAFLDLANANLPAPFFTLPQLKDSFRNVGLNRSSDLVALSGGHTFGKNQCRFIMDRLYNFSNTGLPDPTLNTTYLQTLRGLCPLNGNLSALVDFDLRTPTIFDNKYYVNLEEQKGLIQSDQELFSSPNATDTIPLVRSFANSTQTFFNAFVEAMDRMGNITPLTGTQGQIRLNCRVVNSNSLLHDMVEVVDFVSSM
Method: (§1) The compounds ability to inhibit TXNPx has been evaluated by simply measuring the following ratio: ΔA/ΔA0 where ΔA0 is the difference in absorbance between HRP and compound I (ΔA0 = 0.04) and ΔA is the difference in absorbance between HRP and compound I in the presence of LmTXNPx and 100 μM inhibitors. All the compounds have been previously tested for their ability to inhibit HRP at a concentration of 100 μM.

LmTXNPx [2] = molecular target: T2, LmTXNPx (Leishmania major, UniProt Q4QF76); assay: HRP-H2O2 competition assay (LmTXNPx inhibition assay); assay type: biochemical
Source text: To determine the ability of the selected compounds to inhibit the catalytic activity of LmTXNPx, we used the horseradish peroxidase (HRP)-H2O2 competition assay developed by Augusto and co-workers[16]. HRP is well known to react with H2O2 in a two-electron oxidation process that leads to the formation of HRP compound I (HRP-I), a stable HRP oxidized intermediate that can be followed at 398 nm. Reduced LmTXNPx competes with HRP for the H2O2 substrate, leading to a decrease in HRP-I yield that is proportional to LmTXNPx concentration. The addition of LmTXNPx inhibitors leads to a decrease in free LmTXNPx concentration and consequent increase in the HRP-I yield.
Competition kinetics have been performed for determining the activity of the compounds selected by HTD. The ability of the compounds to inhibit the H2O2 reduction by LmTXNPx has been determined by competition approach utilizing the well-known reactivity of H2O2 with horseradish peroxidase (HRP)[16][20][26]. HRP is a heme-containing peroxidase, which uses hydrogen peroxide (by reducing it to water) to oxidize different organic substrates to free radicals. The reaction takes place in three steps: • PFe(III) + H2O2 → P^·+Fe(IV) = O + H2O • P^·+Fe(IV) = O + X → X^• + PFe(IV) = O • PFe(IV) = O + X + 2H^+ → PFe(III) + X^· + H2O
Where PFe(III) is HRP (the native protein), P^·+Fe(IV) = O is the HRP compound I (HRP-I), PFe(IV) = O is the HRP compound II (HRP-II) and X is a generic substrate. The formation of HPR-I results in a change in light absorption in the visible range (Δε403 nm = 5.4 × 10^4 M^−1cm^−1). For kinetic studies the HRP oxidation is monitored at 398 nm (Δε398 nm = 4.2 × 10^4 M^−1cm^−1) instead of 403 nm (wavelength corresponding to the maximum of HRP absorbance) in order to avoid interferences arising from HRP-I reduction to HRP-II. This method is usually used to determine the second order rate constant of 2Cys- Peroxiredoxin reaction with hydrogen peroxide and peroxinitrite.
Thus, H2O2-mediated HRP oxidation is a two-electron oxidation process, leading to the formation of HRP-I, followed at 398 nm. The addition of increasing concentrations of pre-reduced LmTXNPx led to a lower yield in HRP-I since two reactions take place in solution: [drawing 1] [drawing 2]
Where I indicates the inhibitor and LmTXNPx-I indicates the complex between LmTXNPx and the inhibitor. The addition of active LmTXNPx inhibitors led to a decrease in the free LmTXNPx and the consequent recover in the HRP-I yield and therefore to a partial or total recover of the ΔA.
The HRP-based indirect kinetic assays to test the inhibitors was performed in the following way: HRP 2 μM was exposed to H2O2 0.25 μM in sodium phosphate buffer pH 7.4 and 25°C, either in the absence or in the presence of the indicated concentrations of reduced LmTXNPx and in the absence or in the presence of inhibitors. The relative changes in absorbance at 398 nm (ΔA/ΔA0), reflecting HRP-I formation, were determined.
as §1

LmTXNPx [3] = molecular target: T2, LmTXNPx; assay: Surface plasmon resonance, immobilized LmTXNPx; assay type: binding; conditions: SPR, 1:1 steady-state affinity model
Method: SPR experiments were carried out using a SensiQ Pioneer system (SensiQ, ICxNomadics Inc.). The interaction of the immobilized protein with the analytes was detected by mass concentration-dependent changes of the refractive index on the sensor chip surface. The changes in the observed SPR signal are expressed as Resonance Units (RU). Typically, a response change of 1000 RU corresponds to a change in the surface concentration on the sensor chip of about 1 ng of protein per mm^2.
The sensor chips (COOH5 SensiQ) were chemically activated by injection of 250 μl of a 1:1 mixture of N-hydroxysuccinimide (50 mM) and N-ethyl-N-(3-dimethylaminopropyl)carbodiimide (200 mM) at a flow rate of 25 μl/min. Recombinant LmTXNPx was immobilized on the activated sensor chip via amine coupling. The reaction was carried out at a rate of […] in 20 mM sodium acetate at pH 4.5; the remaining ester groups were blocked by injecting 100 μL of 1 M ethanolamine hydrochloride. Recombinant LmTXNPx was captured to approximately 2000 RU. The analytes were dissolved at a concentration of 10 mM or 20 mM in dimethylsulfoxide (DMSO), and diluted 1:100 in HEPES-buffered saline (HBS: 10 mM HEPES, pH 7.4; 150 mM NaCl; 0.005% surfactant P20).
FastStep injections of samples (100 or 200 μM analytes in HBS + 1% DMSO), and reference buffer (HBS + 1% DMSO) were performed: either the inhibitor and reference buffer were automatically diluted in HBS and injected by 7 serial doubling steps (step contact time = 15 s, nominal flow rate = 200 μl/min). The following analytes were injected: 0–17 s: analyte concentration = 3.12 μM; 17–33 s: 6.25 μM; 33–48 s: 12.5 μM; 48–62 s: 25 μM; 63–78 s: 50 μM; 78–93 s: 100 μM; 94–100 s: 200 μM; for each injection, a maximal RU value was obtained. In control experiments, the sensor chip was treated as described above in the absence of immobilized protein.
Each sensorgram is the average of three different experiments. Sensorgrams were subjected to global analysis using QDat software 2.2.0.23, and for each analyte concentration a % Response was calculated, allowing a local Rmax fit (according to the molecular weight of each compound) and displaying as a response relative to the Rmax. % Response vs. analyte concentration was plotted and a KD value was calculated for each analyte by fitting a simple 1:1 steady-state affinity model to the data.

[4] = residual activity of HRP, HRP 2 μM, H2O2 0.25 μM, 2.5 μM LmTXNPx, 100 μM inhibitors, sodium phosphate buffer pH 7.4, 25°C

T2 sequence (Q4QF76 entry or part of it): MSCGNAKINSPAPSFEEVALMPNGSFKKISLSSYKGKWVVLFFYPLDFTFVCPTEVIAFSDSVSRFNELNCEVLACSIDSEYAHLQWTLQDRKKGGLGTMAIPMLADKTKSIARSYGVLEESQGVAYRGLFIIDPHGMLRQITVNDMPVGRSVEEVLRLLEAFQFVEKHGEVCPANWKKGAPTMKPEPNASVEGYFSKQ

COc1cc2cc(CN(Cc3ccc(F)cc3)Cc3nnnn3Cc3cccc(N)c3)c(=O)[nH]c2cc1OC [Compound 3, 3-((((1-(3-Aminobenzyl)-1H-tetrazol-5-yl)methyl)(4-fluorobenzyl)amino)methyl)-6,7-dimethoxyquinolin-2(1H)-one]
HRP inhib. [1]: No
(ΔA/ΔA0) × 100 (LmTXNPx [2]; [4]): 44 ± 6%
Kd (LmTXNPx [3]): 354 ± 12 µM

COc1cc2cc(CN(Cc3ccc(Br)cc3)Cc3nnnn3Cc3ccccc3)c(=O)[nH]c2cc1OC [Compound 11, 3-((((1-Benzyl-1H-tetrazol-5-yl)methyl)(4-bromobenzyl)amino)methyl)-6,7-dimethoxyquinolin-2(1H)-one]
HRP inhib. [1]: No
(ΔA/ΔA0) × 100 (LmTXNPx [2]; [4]): 37 ± 20%
Kd (LmTXNPx [3]): 112 ± 4 µM

COc1cc2cc(CN(Cc3nnnn3Cc3ccccc3)CC34CC5CC(CC(C5)C3)C4)c(=O)[nH]c2cc1OC [Compound 12, 3-((((1-Benzyl-1H-tetrazol-5-yl)methyl)(1-adamantylmethyl)amino)methyl)-6,7-dimethoxyquinolin-2(1H)-one]
HRP inhib. [1]: No
(ΔA/ΔA0) × 100 (LmTXNPx [2]; [4]): 93 ± 6%
Kd (LmTXNPx [3]): 39 ± 1 µM

COc1cc2cc(CN(Cc3ccc(F)cc3)Cc3nnnn3Cc3cccc(-c4ccccc4)c3)c(=O)[nH]c2cc1OC [Compound 6, 3-((((1-([1,1′-Biphenyl]-3-ylmethyl)-1H-tetrazol-5-yl)methyl)(4-fluorobenzyl)amino)methyl)-6,7-dimethoxyquinolin-2(1H)-one]
HRP inhib. [1]: No
(ΔA/ΔA0) × 100 (LmTXNPx [2]; [4]): 75 ± 9%
Kd (LmTXNPx [3]): 52 ± 1 µM

O=C(Nc1cc(C(=O)Nc2ccc(S(=O)(=O)[O-])c3cc(S(=O)(=O)[O-])cc(S(=O)(=O)[O-])c23)cc(C(=O)Nc2ccc(S(=O)(=O)[O-])c3cc(S(=O)(=O)[O-])cc(S(=O)(=O)[O-])c23)c1)Nc1cc(C(=O)Nc2ccc(S(=O)(=O)[O-])c3cc(S(=O)(=O)[O-])cc(S(=O)(=O)[O-])c23)cc(C(=O)Nc2ccc(S(=O)(=O)[O-])c3cc(S(=O)(=O)[O-])cc(S(=O)(=O)[O-])c23)c1.[Na+].[Na+].[Na+].[Na+].[Na+].[Na+].[Na+].[Na+].[Na+].[Na+].[Na+].[Na+] [NF864]
HRP inhibition [1]: No
(ΔA/ΔA0) × 100 (LmTXNPx [2]; first series (HTD hits), HRP 2 µM, H2O2 0.25 µM, 2.5 µM LmTXNPx, 100 µM inhibitors, pH 7.4, 25 °C): 16 ± 6%

COc1cc2cc(CN(Cc3ccc(Cl)cc3)Cc3nnnn3Cc3ccccc3)c(=O)[nH]c2cc1OC [Compound 10, 3-((((1-Benzyl-1H-tetrazol-5-yl)methyl)(4-chlorobenzyl)amino)methyl)-6,7-dimethoxyquinolin-2(1H)-one]
HRP inhib. [1]: Yes
Kd (LmTXNPx [3]): 63 ± 3 µM

COc1cc2cc(CN(Cc3ccc(F)cc3)Cc3nnnn3Cc3cccc([N+](=O)[O-])c3)c(=O)[nH]c2cc1OC [Compound 2, 3-(((4-Fluorobenzyl)((1-(3-nitrobenzyl)-1H-tetrazol-5-yl)methyl)amino)methyl)-6,7-dimethoxyquinolin-2(1H)-one]
HRP inhib. [1]: No
(ΔA/ΔA0) × 100 (LmTXNPx [2]; [4]): 37 ± 9%
Kd (LmTXNPx [3]): 172 ± 6 µM

COc1cc2cc(CN(Cc3ccc(F)cc3)Cc3nnnn3Cc3cccc(I)c3)c(=O)[nH]c2cc1OC [Compound 5, 3-(((4-Fluorobenzyl)((1-(3-iodobenzyl)-1H-tetrazol-5-yl)methyl)amino)methyl)-6,7-dimethoxyquinolin-2(1H)-one]
HRP inhib. [1]: No
(ΔA/ΔA0) × 100 (LmTXNPx [2]; [4]): 71 ± 6%
Kd (LmTXNPx [3]): 281 ± 11 µM

COc1cc2cc(CN(Cc3ccccc3)Cc3nnnn3Cc3ccccc3)c(=O)[nH]c2cc1OC [Compound 9, 3-((((1-Benzyl-1H-tetrazol-5-yl)methyl)benzylamino)methyl)-6,7-dimethoxyquinolin-2(1H)-one]
HRP inhib. [1]: Yes
Kd (LmTXNPx [3]): 74 ± 3 µM

CCOC(=O)Cc1csc(NC(=O)CSc2nc(C(C)C)nc3sc(C)c(C)c23)n1 [NF2013]
HRP inhibition [1]: Yes

COc1cc2cc(CN(Cc3ccc(F)cc3)Cc3nnnn3Cc3cccc(N(C)C)c3)c(=O)[nH]c2cc1OC [Compound 4, 3-((((1-(3-(Dimethylamino)benzyl)-1H-tetrazol-5-yl)methyl)(4-fluorobenzyl)amino)methyl)-6,7-dimethoxyquinolin-2(1H)-one]
Kd (LmTXNPx [3]): 156 ± 5 µM
